Assay results published in patent US11236106B2, “Cycloalkane-1,3-diamine derivative” (Daiichi Sankyo Company, Limited, priority 2018, dated 2022).
Where a name gives a salt, the structure may show the parent alone. Read-outs that look alike come from different tables or passages of the source.

What was measured:
MV-4-11 cells = assay: cells; details: Homo sapiens
Protocol: (§1) RPMI1640 medium supplemented with 10% FBS was used as a culture medium for each cells (MV-4-11, MOLM-13 cells, human AML cells, K562 cells, human CML cells). […] The prepared drug-containing plate was stored at −30° C. until use, and thawed before use.
(§2) The suspension of each cells was prepared with 10% FBS RPMI1640 culture medium so as to be 1000 cells/mL (K562) or 10000 cells/mL (MV-4-11, MOLM-13), and seeded on the drug-containing plate (40 μL/well) (day 0). The cells were cultured for additional 3 or 7 days. ATP measurement reagent (CellTiter-Glo (registered trademark, Promega Corporation) 2.0 Assay, model number G9242, Promega Corporation) was added to each well at 10 μL/well, on the day of the drug addition (day 0) and 3 days (day 3) or 7 days (day 7) after the drug addition. After affixing a black sticker on the bottom surface, the mixture was stirred using a microplate mixing deaeration machine (model name, Weltornado FK-62, Sakaki Dengyo Co., Ltd.) (stirring conditions, revolution 9, rotation 7, time 12).
(§3) The cell growth of the drug-added group from day 0 to day 3 or day 7 was calculated as T/C %, when the cell growth of the drug-free group was considered as 100%.

K562 cells = assay: cells; details: Homo sapiens
Protocol: as §1, §2, §3

[1] = biological target: T1, menin and MLL (menin, Flag tagged; biotinylated MLL1 peptide 1-46aa) (Homo sapiens, UniProt O00255); assay: biochemical; details: 1 nM menin, 10 nM biotinylated MLL1 peptide, AlphaLISA
T1 sequence (O00255 1-610): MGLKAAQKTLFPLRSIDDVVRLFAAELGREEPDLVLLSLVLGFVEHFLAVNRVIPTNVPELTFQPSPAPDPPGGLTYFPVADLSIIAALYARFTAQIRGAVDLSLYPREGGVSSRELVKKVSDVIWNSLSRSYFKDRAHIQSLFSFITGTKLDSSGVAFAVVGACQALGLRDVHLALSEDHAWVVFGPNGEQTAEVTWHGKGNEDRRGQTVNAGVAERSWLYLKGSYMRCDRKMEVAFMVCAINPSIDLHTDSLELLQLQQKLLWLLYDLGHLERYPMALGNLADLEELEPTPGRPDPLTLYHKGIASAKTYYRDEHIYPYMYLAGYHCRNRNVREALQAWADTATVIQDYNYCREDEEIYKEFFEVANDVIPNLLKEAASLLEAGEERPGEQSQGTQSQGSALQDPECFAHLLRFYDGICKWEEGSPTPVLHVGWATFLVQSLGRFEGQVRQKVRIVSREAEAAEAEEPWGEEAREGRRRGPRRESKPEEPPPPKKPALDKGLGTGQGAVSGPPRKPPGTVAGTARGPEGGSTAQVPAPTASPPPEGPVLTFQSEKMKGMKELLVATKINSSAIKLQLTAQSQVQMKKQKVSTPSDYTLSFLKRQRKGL
Protocol: Then, the fluorescence signal by AlphaLISA (registered trademark, PerkinElmer Co., Ltd.) was measured using a plate reader (PerkinElmer Co., Ltd., EnVisionXcite).

MOLM-13 cells = assay: cells; details: Homo sapiens
Protocol: as §1, §2, §3

[2] = system: MLL-AF9-overexpressing AML-like cells (MA9 cells); assay: Differentiation-inducing activity in MLL-AF9-overexpressing AML-like cells (flow cytometry of Gr-1 and cKit); assay type: cell-based, mouse; details: 7 days, 5 or 20 nM (Ex. 25, 27), 150 or 300 nM (Ex. 26), 50 or 100 nM (Ex. 22); for rate of the myeloid cell differentiation antigen Gr-1-expressing cells in living cells: versus control group (FIG. 10); for rate of the cKit-expressing cells in living cells: versus control group (FIG. 11)
Protocol: The human MLL-AF9 fusion gene was introduced into cKit-positive mononuclear cells isolated from the myeloid of C57BL6 mouse, by retrovirus infection. MLL-AF9-overexpressing AML-like cells (MA9 cells) that acquired abnormal growth ability were established by liquid-culturing the cells after virus infection for a long period of time. Serum-free medium (GlutaMax, P/S, Stem Pro-34 medium containing 10 ng/ml mIL-3, ng/mL mSCF and 10 ng/mL human Oncostatin M) was used as a culture medium.
For the control group, DMSO was added thereto at a final concentration of 0.1% (2 μL/well) (day 0). After culturing for 7 days (day 7), the cells were collected, and blocked with 5% FBS/PBS containing 10% Mouse BD Fc Block (BD) for 10 minutes at room temperature, and then any of various antibodies (Gr-1-FITC or CD117 (cKit)-APC: Biolegend) was added thereto at a final concentration of 0.4 μg/sample, and the mixture was reacted on ice for 30 minutes. Then, dead cell staining dye DAPI (0.2 mg/mL) was added thereto at so as to be […], and the reaction was carried out on ice for additional 2 minutes under shading. Then, the expression level of each surface antigen of the cells was measured by NovoCyte flow cytometer (LMS). The obtained data were analyzed by FlowJo software (Becton Dickinson), and the rate of each surface antigen-expressing cells in the living cells excluding dead cells was graphed.

[3] = MV4-11, 72 h, read-out: GI50 (μM) Day3 MV4;11
[4] = K562, 72 h, read-out: GI50 (μM) Day3 K562
[5] = MOLM-13, 72 h, read-out: GI50 (μM) Day3 MOLM-13
[6] = MV4-11, 168 h, read-out: GI50 (μM) Day7 MV4;11
[7] = K562, 168 h, read-out: GI50 (μM) Day7 K562
[8] = MOLM-13, 168 h, read-out: GI50 (μM) Day7 MOLM-13
[9] = IC50, binding inhibitory activity between menin and MLL

Structure (SMILES) | GI50 (MV-4-11 cells; [3]) [µM] | GI50 (K562 cells; [4]) [µM] | IC50 ([1]; cell free IC50 (nM)) [nM] | GI50 (MOLM-13 cells; [5]) [µM] | IC50 [1, 9] [nM] | other results
CC(N[C@H]1CC[C@@H](N(C)c2ncnc3sc(CC(F)(F)F)cc23)C1)c1ccccc1 (mixture of isomers) [Example 33, (1R,3S)-N^1-methyl-N^3-(1-phenylethyl)-N^1-[6-(2,2,2-trifluoroethyl)thieno[2,3-d]pyrimidin-4-yl]cyclopentane-1,3-diamine (diastereomer mixture)] | 5.22 | 6.44 | 2420 | 4.82 |  | 
COc1cncc(-c2ccc(CN[C@@H]3C[C@H](Nc4ncnc5sc(CC(F)(F)F)cc45)C[C@H](OC)C3)cc2)c1 (single isomer, unassigned) [Example 18A, Hydrochloride] | 0.26 | 5.7 | 10.3 | 2.83 |  | GI50 (MV-4-11 cells; [6]): 0.131 µM; GI50 (K562 cells; [7]): 5.01 µM; GI50 (MOLM-13 cells; [8]): 0.448 µM
COc1cncc(-c2ccc(CN[C@H]3C[C@@H](Nc4ncnc5sc(CC(F)(F)F)cc45)C[C@@H](OC)C3)cc2)c1 (single isomer, unassigned) [Example 18B, Hydrochloride] | 2.16 | 5.18 | 182 | 3.08 |  | GI50 (MV-4-11 cells; [6]): 1.47 µM; GI50 (K562 cells; [7]): 4.71 µM; GI50 (MOLM-13 cells; [8]): 3.97 µM
COc1cncc(-c2ccc(CN[C@@H]3C[C@H](Nc4ncnc5sc(CC(F)(F)F)cc45)C[C@H](c4ncco4)C3)cc2)c1 (single isomer, unassigned) [Example 19A, Hydrochloride] | 0.489 | 5.51 | 33.5 | 3.2 |  | GI50 (MV-4-11 cells; [6]): 0.295 µM; GI50 (K562 cells; [7]): 5.39 µM; GI50 (MOLM-13 cells; [8]): 0.906 µM
COc1cncc(-c2ccc(CN[C@H]3C[C@@H](Nc4ncnc5sc(CC(F)(F)F)cc45)C[C@@H](c4ncco4)C3)cc2)c1 (single isomer, unassigned) [Example 19B, Hydrochloride] | 3.18 | 5.45 | 1810 | 4.03 |  | GI50 (MV-4-11 cells; [6]): 2.6 µM; GI50 (K562 cells; [7]): 5.41 µM; GI50 (MOLM-13 cells; [8]): 5.75 µM
COc1cc(-c2ccc(CN[C@H]3C[C@@H](O)[C@@H](N(C)c4ncnc5sc(CC(F)(F)F)cc45)C3)cc2)cnc1C#N [Example 22, 5-[4-({[(1R,3R,4S)-3-hydroxy-4-{methyl[6-(2,2,2-trifluoroethyl)thieno[2,3-d]pyrimidin-4-yl]amino}cyclopentyl]amino}methyl)phenyl]-3-methoxypyridine-2-carbonitrile Hydrochloride] |  |  | 3.8 |  |  | rate of the myeloid cell differentiation antigen Gr-1-expressing cells in living cells [2]: increased the rate of Gr-1-positive cells; rate of the cKit-expressing cells in living cells [2]: reduced the rate of cKit-positive cells
COc1nc(N(C)[C@H]2C[C@@H](NCc3ccc(-c4cc(OC)c(OC)nn4)cc3)C[C@H]2O)c2cc(CC(F)(F)F)sc2n1 [Example 27, (1R,2S,4R)-4-({[4-(5,6-dimethoxypyridazin-3-yl)phenyl]methyl}amino)-2-{[2-methoxy-6-(2,2,2-trifluoroethyl)thieno[2,3-d]pyrimidin-4-yl](methyl)amino}cyclopentan-1-ol Hydrochloride] |  |  | 1.3 |  |  | rate of the myeloid cell differentiation antigen Gr-1-expressing cells in living cells [2]: increased the rate of Gr-1-positive cells; rate of the cKit-expressing cells in living cells [2]: reduced the rate of cKit-positive cells
COc1cc(-c2ccc(CN[C@H]3C[C@@H](O)[C@@H](N(C)c4ncncc4Oc4ccc(F)c(F)c4C(=O)N(C(C)C)C(C)C)C3)cc2)nnc1OC [Example 104, 6-[(4-{[(1S,2R,4R)-4-({[4-(5,6-dimethoxypyridazin-3-yl)phenyl]methyl}amino)-2-hydroxycyclopentyl](methyl)amino}pyrimidin-5-yl)oxy]-2,3-difluoro-N,N-di(propan-2-yl)benzamide hydrochloride] |  |  |  |  | 6.3 | GI50 (MV-4-11 cells; MV4-11, 72 h, read-out: GI50, cell growth inhibitory activity, MV-4-11, day 3): 0.097 µM; GI50 (MV-4-11 cells; MV4-11, 168 h, read-out: GI50, cell growth inhibitory activity, MV-4-11, day 7): 0.066 µM; GI50 (K562 cells; K562, 72 h, read-out: GI50, cell growth inhibitory activity, K562, day 3): > 5 µM; GI50 (K562 cells; K562, 168 h, read-out: GI50, cell growth inhibitory activity, K562, day 7): > 5 µM; GI50 (MOLM-13 cells; MOLM-13, 72 h, read-out: GI50, cell growth inhibitory activity, MOLM-13, day 3): 0.7 µM; GI50 (MOLM-13 cells; MOLM-13, 168 h, read-out: GI50, cell growth inhibitory activity, MOLM-13, day 7): 0.187 µM
[2H]C([2H])([2H])Oc1cc(-c2ccc(CN[C@H]3C[C@@H](O)[C@@H](N(C)c4nc(OC)nc5sc(CC(F)(F)F)cc45)C3)cc2)nnc1OC([2H])([2H])[2H] [Example 123, (1R,2S,4R)-4-{[(4-{5,6-bis[(^2H3)methyloxy]pyridazin-3-yl}phenyl)methyl}amino}-2-{[2-methoxy-6-(2,2,2-trifluoroethyl)thieno[2,3-d]pyrimidin-4-yl](methyl}amino}cyclopentan-1-ol] |  |  |  |  | 0.6 | 
CN(c1ncnc2sc(CC(F)(F)F)cc12)[C@H]1C[C@@H](NCc2cccc(-c3cccnc3)c2)C[C@H]1O [Example 124, (1R,2S,4R)-2-{methyl[6-(2,2,2-trifluoroethyl)thieno[2,3-d]pyrimidin-4-yl]amino}-4-({[3-(pyridin-3-yl)phenyl]methyl}amino)cyclopentan-1-ol hydrochloride] |  |  |  |  | 182 | 
COc1cc(-c2ccc(CN[C@H]3CC[C@H](OC)[C@@H](Nc4ncnc5sc(CC(F)(F)F)cc45)C3)cc2)nnc1OC [Example 126, (1S,3S,4S)—N^1-{[4-(5,6-dimethoxypyridazin-3-yl)phenyl]methyl}-4-methoxy-N^3-[6-(2,2,2-trifluoroethyl)thieno[2,3-d]pyrimidin-4-yl]cyclohexane-1,3-diamine Hydrochloride] |  |  |  |  | 7.5 | 
COc1cc(-c2ccc(CN[C@H]3C[C@@H](OC)[C@@H](N(C)c4ncnc5sc(CC(F)(F)F)cc45)C3)cc2)nnc1OC [Example 127, (1R,3S,4R)—N^1-{[4-(5,6-dimethoxypyridazin-3-yl)phenyl]methyl}-4-methoxy-N^3-methyl-N^3-[6-(2,2,2-trifluoroethyl)thieno[2,3-d]pyrimidin-4-yl]cyclopentane-1,3-diamine Hydrochloride] |  |  |  |  | 1.6 | 
COc1cncc(-c2ccc(CN[C@H]3C[C@@H](O)[C@@H](N(C)c4ncnc5sc(CC(F)(F)F)cc45)C3)cc2)c1 [Example 129, (1R,2S,4R)-4-({[4-(5-methoxypyridin-3-yl)phenyl]methyl}amino)-2-{methyl[6-(2,2,2-trifluoroethyl)thieno[2,3-d]pyrimidin-4-yl]amino}cyclopentan-1-ol Hydrochloride] |  |  |  |  | 5.5 | 
COc1ncc(-c2ccc(CN[C@H]3CC[C@@H](N(C)c4ncnc5sc(CC(F)(F)F)cc45)C3)cc2)s1 [Example 130, (1R,3S)—N^3-{[4-(2-methoxy-1,3-thiazol-5-yl)phenyl]methyl}-N^1-methyl-N^1-[6-(2,2,2-trifluoroethyl)thieno[2,3-d]pyrimidin-4-yl]cyclopentane-1,3-diamine Hydrochloride] |  |  |  |  | 6.5 | 
